Test results: patent publication US12077503B2, “Substituted cyclic amides and their use as herbicides” (FMC CORPORATION, priority 2015, dated 2024)

Legend:
Format in all cases: in vivo
[1] = tested on: ryegrass, Italian (Italian ryegrass, Lolium multiflorum); assay: Test A postemergence; details: postemergence; for Ryegrass, Italian plant response rating: 125 g ai/ha, visual injury rating on 0 to 100 scale (0 no effect, 100 complete control), approx. 10 d; for Plant response rating, Ryegrass, Italian: 500 g ai/ha, 0 to 100 scale, 0 no effect, 100 complete control
Method in brief: (§1)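 Treatment is preemergence as a directed soil spray after planting, or postemergence at the one- to two-leaf stage, with test chemical in a non-phytotoxic solvent mixture plus surfactant. Plants stay in the greenhouse about 10 d before visual injury scoring on a 0 to 100 scale versus untreated controls.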

[2] = tested on: blackgrass (Alopecurus myosuroides); assay: Test A postemergence; details: postemergence; for Blackgrass plant response rating: 125 g ai/ha, visual injury rating on 0 to 100 scale (0 no effect, 100 complete control), approx. 10 d; for Plant response rating, Blackgrass: 500 g ai/ha, 0 to 100 scale, 0 no effect, 100 complete control
Method in brief: as §1

[3] = tested on: wheat (Triticum aestivum); assay: Test A postemergence; details: postemergence; for Wheat plant response rating: 125 g ai/ha, visual injury rating on 0 to 100 scale (0 no effect, 100 complete control), approx. 10 d; for Plant response rating, Wheat: 500 g ai/ha, 0 to 100 scale, 0 no effect, 100 complete control
Method in brief: as §1

[4] = tested on: Kochia (Kochia scoparia); assay: Test A postemergence; details: postemergence; for Kochia plant response rating: 125 g ai/ha, visual injury rating on 0 to 100 scale (0 no effect, 100 complete control), approx. 10 d; for Plant response rating, Kochia: 500 g ai/ha, 0 to 100 scale, 0 no effect, 100 complete control
Method in brief: as §1

[5] = tested on: barnyardgrass (Echinochloa crus-galli); assay: Test A postemergence; details: postemergence; for Barnyardgrass plant response rating: 125 g ai/ha, visual injury rating on 0 to 100 scale (0 no effect, 100 complete control), approx. 10 d; for Plant response rating, Barnyardgrass: 500 g ai/ha, 0 to 100 scale, 0 no effect, 100 complete control
Method in brief: as §1

[6] = tested on: corn (Zea mays); assay: Test A postemergence; details: postemergence; for Corn plant response rating: 125 g ai/ha, visual injury rating on 0 to 100 scale (0 no effect, 100 complete control), approx. 10 d; for Plant response rating, Corn: 500 g ai/ha, 0 to 100 scale, 0 no effect, 100 complete control
Method in brief: as §1

[7] = tested on: ragweed (common ragweed, Ambrosia elatior); assay: Test A postemergence; details: postemergence; for Ragweed plant response rating: 125 g ai/ha, visual injury rating on 0 to 100 scale (0 no effect, 100 complete control), approx. 10 d; for Plant response rating, Ragweed: 500 g ai/ha, 0 to 100 scale, 0 no effect, 100 complete control
Method in brief: as §1

[8] = tested on: pigweed (Amaranthus retroflexus); assay: Test A postemergence; details: postemergence; for Pigweed plant response rating: 125 g ai/ha, visual injury rating on 0 to 100 scale (0 no effect, 100 complete control), approx. 10 d; for Plant response rating, Pigweed: 500 g ai/ha, 0 to 100 scale, 0 no effect, 100 complete control
Method in brief: as §1

[9] = tested on: Galium (catchweed bedstraw, Galium aparine); assay: Test A postemergence; details: postemergence; for Galium plant response rating: 125 g ai/ha, visual injury rating on 0 to 100 scale (0 no effect, 100 complete control), approx. 10 d; for Plant response rating, Galium: 500 g ai/ha, 0 to 100 scale, 0 no effect, 100 complete control
Method in brief: as §1

[10] = tested on: giant foxtail (Setaria faberii); assay: Test A postemergence; details: postemergence; for Foxtail, Giant plant response rating: 125 g ai/ha, visual injury rating on 0 to 100 scale (0 no effect, 100 complete control), approx. 10 d; for Plant response rating, Foxtail, Giant: 500 g ai/ha, 0 to 100 scale, 0 no effect, 100 complete control
Method in brief: as §1

[11] = tested on: ryegrass, Italian (Italian ryegrass, Lolium multiflorum); assay: Test A preemergence; details: for Plant response rating, Ryegrass, Italian: 125 g ai/ha, preemergence, 0 to 100 scale (0 no effect, 100 complete control); for Ryegrass, Italian plant response rating (0 to 100 scale, 0 is no effect, 100 is complete control): Preemergence, 500 g ai/ha, visual injury approx. 10 d
Method in brief: as §1

[12] = tested on: Kochia (Kochia scoparia); assay: Test A preemergence; details: for Plant response rating, Kochia: 125 g ai/ha, preemergence, 0 to 100 scale (0 no effect, 100 complete control); for Kochia plant response rating (0 to 100 scale, 0 is no effect, 100 is complete control): Preemergence, 500 g ai/ha, visual injury approx. 10 d
Method in brief: as §1

[13] = tested on: barnyardgrass (Echinochloa crus-galli); assay: Test A preemergence; details: for Plant response rating, Barnyardgrass: 125 g ai/ha, preemergence, 0 to 100 scale (0 no effect, 100 complete control); for Barnyardgrass plant response rating (0 to 100 scale, 0 is no effect, 100 is complete control): Preemergence, 500 g ai/ha, visual injury approx. 10 d
Method in brief: as §1

[14] = tested on: ragweed (common ragweed, Ambrosia elatior); assay: Test A preemergence; details: for Plant response rating, Ragweed: 125 g ai/ha, preemergence, 0 to 100 scale (0 no effect, 100 complete control); for Ragweed plant response rating (0 to 100 scale, 0 is no effect, 100 is complete control): Preemergence, 500 g ai/ha, visual injury approx. 10 d
Method in brief: as §1

[15] = tested on: pigweed (Amaranthus retroflexus); assay: Test A preemergence; details: for Plant response rating, Pigweed: 125 g ai/ha, preemergence, 0 to 100 scale (0 no effect, 100 complete control); for Pigweed plant response rating (0 to 100 scale, 0 is no effect, 100 is complete control): Preemergence, 500 g ai/ha, visual injury approx. 10 d
[16] = tested on: giant foxtail (Setaria faberii); assay: Test A preemergence; details: for Plant response rating, Foxtail, Giant: 125 g ai/ha, preemergence, 0 to 100 scale (0 no effect, 100 complete control); for Foxtail, Giant plant response rating (0 to 100 scale, 0 is no effect, 100 is complete control): Preemergence, 500 g ai/ha, visual injury approx. 10 d
Method in brief: as §1

[17] = tested on: sedge, umbrella (small-flower umbrella sedge, Cyperus difformis); assay: Test B flooded paddy test; details: Flood, 500 g ai/ha; 0 to 100 scale where 0 is no effect and 100 is complete control; 13 to 15 d
Method in brief: (§2)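 Visual ratings (0 none to 100 complete control) are relative to untreated plants, taken 13–15 d after treatment in a greenhouse. Test material went straight into floodwater standing 3 cm above the soil, kept constant, on plants at the 2-leaf stage.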

[18] = tested on: barnyardgrass (Echinochloa crus-galli); assay: Test B flooded paddy test; details: Flood, 500 g ai/ha; 0 to 100 scale where 0 is no effect and 100 is complete control; 13 to 15 d
Method in brief: as §2

[19] = tested on: rice (Oryra sativa); assay: Test B flooded paddy test; details: Flood, 500 g ai/ha; 0 to 100 scale where 0 is no effect and 100 is complete control; 13 to 15 d
Method in brief: as §2

[20] = tested on: ducksalad (Heteranthera limosa); assay: Test B flooded paddy test; details: Flood, 500 g ai/ha; 0 to 100 scale where 0 is no effect and 100 is complete control; 13 to 15 d
Method in brief: as §2

COc1cccc(NC(=O)C2C(=O)NCC2c2cccc(OC(F)F)c2)c1F (stereo not drawn) [Compound 426]
Ryegrass, Italian plant response rating [1]: 0 | Plant response rating, Ryegrass, Italian [1]: 0 | Blackgrass plant response rating [2]: 0 | Plant response rating, Blackgrass [2]: 0 | Wheat plant response rating [3]: 0 | Plant response rating, Wheat [3]: 0 | Kochia plant response rating [4]: 0 | Plant response rating, Kochia [4]: 0 | Barnyardgrass plant response rating [5]: 30 | Plant response rating, Barnyardgrass [5]: 70 | Corn plant response rating [6]: 0 | Plant response rating, Corn [6]: 0 | Ragweed plant response rating [7]: 0 | Plant response rating, Ragweed [7]: 0 | Pigweed plant response rating [8]: 0 | Plant response rating, Pigweed [8]: 0 | Galium plant response rating [9]: 0 | Plant response rating, Galium [9]: 0 | Foxtail, Giant plant response rating [10]: 20 | Plant response rating, Foxtail, Giant [10]: 60 | Plant response rating, Ryegrass, Italian [11]: 0 | Ryegrass, Italian plant response rating (0 to 100 scale, 0 is no effect, 100 is complete control) [11]: 0 | Plant response rating, Kochia [12]: 0 | Kochia plant response rating (0 to 100 scale, 0 is no effect, 100 is complete control) [12]: 0 | Plant response rating, Barnyardgrass [13]: 50 | Barnyardgrass plant response rating (0 to 100 scale, 0 is no effect, 100 is complete control) [13]: 80 | Plant response rating, Ragweed [14]: 0 | Ragweed plant response rating (0 to 100 scale, 0 is no effect, 100 is complete control) [14]: 0 | Plant response rating, Pigweed [15]: 0 | Pigweed plant response rating (0 to 100 scale, 0 is no effect, 100 is complete control) [15]: 30 | Plant response rating, Foxtail, Giant [16]: 80 | Foxtail, Giant plant response rating (0 to 100 scale, 0 is no effect, 100 is complete control) [16]: 90 | Plant response rating, Sedge, Umbrella [17]: 0 | Plant response rating, Barnyardgrass [18]: 0 | Plant response rating, Rice [19]: 0 | Plant response rating, Ducksalad [20]: 40

O=C1NCC(c2cccc(OC(F)F)c2)C1C(=O)Nc1ccccc1OC(F)F (stereo not drawn) [Compound 427]
Ryegrass, Italian plant response rating [1]: 0 | Plant response rating, Ryegrass, Italian [1]: 20 | Blackgrass plant response rating [2]: 20 | Plant response rating, Blackgrass [2]: 40 | Wheat plant response rating [3]: 0 | Plant response rating, Wheat [3]: 20 | Kochia plant response rating [4]: 0 | Plant response rating, Kochia [4]: 20 | Barnyardgrass plant response rating [5]: 60 | Plant response rating, Barnyardgrass [5]: 80 | Corn plant response rating [6]: 0 | Plant response rating, Corn [6]: 20 | Ragweed plant response rating [7]: 0 | Plant response rating, Ragweed [7]: 20 | Pigweed plant response rating [8]: 0 | Plant response rating, Pigweed [8]: 0 | Galium plant response rating [9]: 40 | Plant response rating, Galium [9]: 50 | Foxtail, Giant plant response rating [10]: 50 | Plant response rating, Foxtail, Giant [10]: 80 | Plant response rating, Ryegrass, Italian [11]: 0 | Ryegrass, Italian plant response rating (0 to 100 scale, 0 is no effect, 100 is complete control) [11]: 30 | Plant response rating, Kochia [12]: 30 | Kochia plant response rating (0 to 100 scale, 0 is no effect, 100 is complete control) [12]: 80 | Plant response rating, Barnyardgrass [13]: 40 | Barnyardgrass plant response rating (0 to 100 scale, 0 is no effect, 100 is complete control) [13]: 90 | Plant response rating, Ragweed [14]: 0 | Ragweed plant response rating (0 to 100 scale, 0 is no effect, 100 is complete control) [14]: 40 | Plant response rating, Pigweed [15]: 0 | Pigweed plant response rating (0 to 100 scale, 0 is no effect, 100 is complete control) [15]: 40 | Plant response rating, Foxtail, Giant [16]: 90 | Foxtail, Giant plant response rating (0 to 100 scale, 0 is no effect, 100 is complete control) [16]: 90 | Plant response rating, Sedge, Umbrella [17]: 0 | Plant response rating, Barnyardgrass [18]: 40 | Plant response rating, Rice [19]: 0 | Plant response rating, Ducksalad [20]: 100
